Test results: ChEMBL document CHEMBL4842358, “Design, synthesis and biological evaluation of sphingosine-1-phosphate receptor 2 antagonists as potent 5-FU-resistance reversal agents for the treatment of colorectal cancer” (Eur J Med Chem, 2021)
The source made the active and inactive calls. The calls are words filed in the database; no cut-off is given here.

What was measured:
[1] = Downregulation of S1PR2 expression in human HCT-116 cells overexpressing DPD at 0.16 to 2.5 uM cells measured by western blot assay; type: ADME, cell-based; settings: hct-116, 2.5 µM, dose 0.16-2.5 µM
[2] = biological target: T1, Sphingosine 1-phosphate receptor 2 (Homo sapiens, UniProt O95136); assay: Antagonist activity at S1PR2 in human SW620/5-FU cells assessed as downregulation of DPD expression by western blot analysis; type: functional, cell-based; settings: filed as antagonist
T1 sequence (O95136 whole entry): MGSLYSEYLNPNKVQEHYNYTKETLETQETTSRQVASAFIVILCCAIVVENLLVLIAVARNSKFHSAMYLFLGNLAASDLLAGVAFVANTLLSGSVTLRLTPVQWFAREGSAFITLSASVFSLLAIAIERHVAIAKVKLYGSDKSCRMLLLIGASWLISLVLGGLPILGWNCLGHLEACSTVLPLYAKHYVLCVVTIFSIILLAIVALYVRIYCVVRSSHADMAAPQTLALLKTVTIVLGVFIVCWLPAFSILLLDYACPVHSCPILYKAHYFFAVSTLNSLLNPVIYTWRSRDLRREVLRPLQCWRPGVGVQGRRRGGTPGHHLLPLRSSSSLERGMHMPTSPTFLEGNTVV

SW620/5-FU = assay: Antitumour activity against human SW620/5-FU cells xenografted in athymic nude mouse assessed as inhibition of tumour growth at 1.08 mg/kg/day, iv administered for 24 days; type: functional; settings: 576 h, time 24 day, read-out: TGI
[3] = Toxicity in athymic nude mouse xenografted with human SW620/5-FU cells assessed as histopathological changes in liver at 1.08 mg/kg/day, iv administered for 24 days in presence of 5-FU and measured on day 24 by immunohistochemistry; type: organism-based; settings: in vivo, 576 h, time 24 day
Mus musculus [4] = assay: Downregulation of DPD expression in tumour of athymic nude mouse xenografted with human SW620/5-FU at 1.08 mg/kg/day, iv administered for 24 days in presence of 5-FU and measured on day 24 by immunohistochemistry; type: functional, organism-based; settings: time 24.0 day
[5] = Reversal of 5-FU resistance against human SW620/5-FU cells xenografted in athymic nude mouse assessed as potentiation of 5-FU induced antitumor activity by measuring inhibition of tumor growth at 1.08 mg/kg/day, iv administered for 24 days in presence of 5-FU (reference value: 18.54%); type: functional; settings: 576 h, time 24 day, read-out: TGI
[6] = Volume of distribution in Sprague-Dawley rat plasma at 1 mg/kg, iv measured for 24 hrs by LC-MS/MS analysis; type: ADME, organism-based
[7] = biological target: T1, Sphingosine 1-phosphate receptor 2; assay: Binding affinity to S1PR2 (unknown origin) measured by surface plasmon resonance assay; settings: filed as antagonist
[8] = AUC (0 to t) in Sprague-Dawley rat plasma at 1 mg/kg, iv measured for 24 hrs by LC-MS/MS analysis; type: ADME, organism-based; set-up: dose 1 mg/kg, time 24 hrs
[9] = biological target: T1, Sphingosine 1-phosphate receptor 2; assay: Antagonist activity at S1PR2 in human HCT-116 cells overexpressing DPD assessed as downregulation of JMJD3 expression at 0.16 to 2.5 uM measured by western blot assay; type: functional, cell-based; settings: filed as antagonist, dose 0.16-2.5 µM
[10] = Downregulation of human S1PR2 expression in human SW620/5-FU cells at 0.16 to 2.5 uM cells measured by western blot assay; type: ADME, cell-based; settings: dose 0.16-2.5 µM
[11] = Initial drug concentration in Sprague-Dawley rat blood at 1 mg/kg, iv by LC-MS/MS analysis; type: ADME, organism-based
[12] = Mean residence time (0 to infinity) in Sprague-Dawley rat blood at 1 mg/kg, iv by LC-MS/MS analysis; type: ADME, organism-based
[13] = Mean residence time (0 to t) in Sprague-Dawley rat plasma at 1 mg/kg, iv measured for 24 hrs by LC-MS/MS analysis; type: ADME, organism-based
[14] = Stability in mouse liver microsomes assessed as parent compound remaining at 2 umol/L measured after 60 mins in presence of NADPH regenerating system by LC-MS/MS analysis; type: ADME, Microsome; settings: dose 2 µmol/L, read-out: Stabilty
HCT-116 = assay: Reversal of 5-FU resistance against human HCT-116 cells overexpressing DPD assessed as inhibition of cell proliferation measured after 72 hrs in presence of 5-FU by MTT assay; type: functional, cell-based; settings: HCT-116, 72 h
Mus musculus [15] = assay: Downregulation of DPD expression in liver of athymic nude mouse xenografted with human SW620/5-FU at 1.08 mg/kg/day, iv administered for 24 days in presence of 5-FU and measured on day 24 by Western blot assay; type: functional, organism-based; settings: time 24.0 day
[16] = AUC (0 to infinity) in Sprague-Dawley rat blood at 1 mg/kg, iv by LC-MS/MS analysis; type: ADME, organism-based; set-up: route intravenous, time infinity, dose 1 mg/kg
Mus musculus [17] = assay: Downregulation of DPD expression in liver of athymic nude mouse xenografted with human SW620/5-FU at 1.08 mg/kg/day, iv administered for 24 days in presence of 5-FU and measured on day 24 by immunohistochemistry; type: functional, organism-based; settings: time 24.0 day
[18] = Mean residence time (0 to t) in Sprague-Dawley rat blood at 1 mg/kg, iv measured for 24 hrs by LC-MS/MS analysis; type: ADME, organism-based
NCM460 = assay: Cytotoxicity against human NCM460 cells assessed as cell viability measured after 72 hrs in presence of 5-FU by MTT assay; type: cell-based; settings: NCM460, 72 h
Mus musculus [19] = assay: Downregulation of DPD expression in tumour of athymic nude mouse xenografted with human SW620/5-FU at 1.08 mg/kg/day, iv administered for 24 days in presence of 5-FU and measured on day 24 by Western blot assay; type: functional, organism-based; settings: time 24.0 day
[20] = AUC (0 to t) in Sprague-Dawley rat blood at 1 mg/kg, iv measured for 24 hrs by LC-MS/MS analysis; type: ADME, organism-based; set-up: time 24 hrs, dose 1 mg/kg
[21] = biological target: T1, Sphingosine 1-phosphate receptor 2; assay: Antagonist activity at S1PR2 in human HCT-116 cells overexpressing DPD assessed as downregulation of DPD expression by western blot analysis; type: functional, cell-based; settings: filed as antagonist, dose 0.16-2.5 µM
[22] = Volume of distribution in Sprague-Dawley rat blood at 1 mg/kg, iv measured for 24 hrs by LC-MS/MS analysis; type: ADME, organism-based
[23] = Clearance in Sprague-Dawley rat plasma at 1 mg/kg, iv measured for 24 hrs by LC-MS/MS analysis; type: ADME, organism-based
[24] = biological target: T1, Sphingosine 1-phosphate receptor 2; assay: Antagonist activity at S1PR2 in human SW620/5-FU cells assessed as downregulation of JMJD3 expression at 0.16 to 2.5 uM measured by western blot assay; type: functional, cell-based; settings: filed as antagonist, dose 0.16-2.5 µM
[25] = Stability in rat liver microsomes assessed as parent compound remaining at 2 umol/L measured after 60 mins in presence of NADPH regenerating system by LC-MS/MS analysis; type: ADME, Microsome; settings: dose 2 µmol/L, read-out: Stabilty
[26] = biological target: T1, Sphingosine 1-phosphate receptor 2; assay: Antagonist activity at S1PR2 in human SW620/5-FU cells assessed as reduction in dosage of 5-FU at 0.5 to 2.5 uM measured after 6 hrs by HPLC-UV analysis; type: functional, cell-based; settings: filed as antagonist, dose 0.5-2.5 µM
[27] = biological target: T1, Sphingosine 1-phosphate receptor 2; assay: Antagonist activity at S1PR2 in human SW620/5-FU cells assessed as reduction of DPD-catalyzed 5-FU degradation by measuring intracellular FBAL level at 2 uM measured after 6 hrs by HPLC-UV analysis; type: functional, cell-based; settings: filed as antagonist
[28] = Initial plasma concentration in Sprague-Dawley rat at 1 mg/kg, iv by LC-MS/MS analysis; type: ADME, organism-based
Mus musculus [29] = assay: Downregulation of DPD expression in colon of athymic nude mouse xenografted with human SW620/5-FU cells at 1.08 mg/kg/day, iv administered for 24 days in presence of 5-FU and measured on day 24 by immunohistochemistry; type: functional, organism-based; settings: time 24.0 day
[30] = biological target: T1, Sphingosine 1-phosphate receptor 2; assay: Antagonist activity at S1PR2 in human SW620/5-FU cells assessed as reduction of DPD-catalyzed 5-FU degradation by measuring intracellular 5-FU level at 2 uM measured after 6 hrs by HPLC-UV analysis; type: functional, cell-based; settings: filed as antagonist
[31] = Half life in Sprague-Dawley rat blood at 1 mg/kg, iv measured for 24 hrs by LC-MS/MS analysis; type: ADME, organism-based
[32] = biological target: T1, Sphingosine 1-phosphate receptor 2; assay: Binding affinity to S1PR2 (unknown origin) assessed as association constant measured for 60 secs by surface plasmon resonance assay; settings: filed as antagonist, time 60.0 sec
[33] = Reversal of 5-FU resistance against human SW620/5-FU cells assessed as inhibition of cell proliferation measured after 72 hrs in presence of 5-FU by MTT assay; type: functional, cell-based
[34] = AUC (0 to infinity) in Sprague-Dawley rat plasma at 1 mg/kg, iv by LC-MS/MS analysis; type: ADME, organism-based; set-up: time infinity, route intravenous, dose 1 mg/kg
[35] = Mean residence time (0 to infinity) in Sprague-Dawley rat plasma at 1 mg/kg, iv by LC-MS/MS analysis; type: ADME, organism-based
[36] = biological target: T1, Sphingosine 1-phosphate receptor 2; assay: Binding affinity to S1PR2 (unknown origin) assessed as dissociation constant measured for 60 secs by surface plasmon resonance assay
[37] = Clearance in Sprague-Dawley rat blood at 1 mg/kg, iv measured for 24 hrs by LC-MS/MS analysis; type: ADME, organism-based
[38] = Toxicity in athymic nude mouse xenografted with human SW620/5-FU cells assessed as changes in body weight at 1.08 mg/kg/day, iv administered for 24 days in presence of 5-FU and measured for every 4 days; type: organism-based; settings: in vivo, 576 h, time 24 day
[39] = Ratio of drug level in Sprague-Dawley rat blood to plasma at 1 mg/kg, iv measured for 24 hrs by LC-MS/MS analysis; type: ADME, organism-based; settings: blood and plasma
[40] = Half life in Sprague-Dawley rat plasma at 1 mg/kg, iv measured for 24 hrs by LC-MS/MS analysis; type: ADME, organism-based

## O=C(Nc1cc(Cl)nc(Cl)c1)Nc1cc(Cl)nc(Cl)c1
[1]
  Activity: Non-Toxic
[2]
  inhibition: Dose-Dependent Effect
SW620/5-FU
  inhibition in vivo at 1.08 mg/kg/day: 7.5%
[3]
  Activity: Non-Toxic
Mus musculus [4]
  inhibition: Active
[5]
  inhibition in vivo at 1.08 mg/kg/day: 66.2%
[6]
  Vd: 1.7 L/kg
[7]
  K: 1.32 10^-8M
[8]
  AUC(0-t) at 24 h: 3840 ng·h/mL
[9]
  inhibition: Active
[10]
  Activity: Non-Toxic
[11]
  C0: 489 ng/mL
[12]
  MRT inf: 6.7 h
[13]
  MRT last at 24 h: 6.2 h
[14]
  remaining at 1 h, 2 µM: 97.9%
HCT-116
  EC50: 180 nM
Mus musculus [15]
  inhibition: Active
[16]
  AUC(0-inf): 1950 ng·h/mL
Mus musculus [17]
  inhibition: Active
[18]
  MRT last at 24 h: 6 h
NCM460
  EC50: 9440 nM
Mus musculus [19]
  inhibition: Active
[20]
  AUC(0-t) at 24 h: 1890 ng·h/mL
[21]
  inhibition: Dose-Dependent Effect
[22]
  Vd: 3.3 L/kg
[23]
  clearance: 4.17 mL/min/kg
[24]
  inhibition: Active
[25]
  remaining at 1 h, 2 µM: 95.2%
[26]
  inhibition: Active
[27]
  Activity: 0.17 mg/L
[28]
  C0: 1110 ng/mL
Mus musculus [29]
  inhibition: Active
[30]
  Activity: 10 mg/L
[31]
  half-life: 4.4 h
[32]
  Ka: 5.28 10^6/M/s
[33]
  EC50: 210 nM
[34]
  AUC(0-inf): 3960 ng·h/mL
[35]
  MRT inf: 7 h
[36]
  Dissociation rate constant (koff): 6.97 10^-1/s
[37]
  clearance: 8.5 mL/min/kg
[38]
  Activity: Non-Toxic
[39]
  blood plasma ratio at 24 h: 0.484
[40]
  half-life: 4.7 h
